Measured values reported in patent publication US20240368150A1 (Hoffmann-La Roche Inc., priority 2021, published 2024).
Where two headings read alike, the source gives them in different places.

Key:
primary human T-cells [1] = tested on: primary human T-cells
primary human T-cells [2] = assay: Proliferation assay after 5 days (CellTiter-Glo, CD3 stimulation; PBS counter screen); type: cell-based; settings: Homo sapiens, T-cell, 120 h, CD3 stimulation; for Emax: 5 days, normalized to reference compound A1 as stimulator control = 100%, DMSO neutral control, read-out: Emax proliferation (% activation); for EC50: primary human T-cells, CellTiter-Glo after 5 days, EC50 of fitted sigmoidal curve, read-out: Tcell Proliferation CD3 EC50
How it was run: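 Primary human T-cells, with or without CD3 stimulation, exposed to compounds for 5 days; cell number read as ATP by CellTiter-Glo 2.0 luminescence after 45 min equilibration and 15 min reagent incubation at room temperature. Compounds activating unstimulated cells or reducing viability were flagged.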

Row | EC50 (primary human T-cells [1]) [nM] | Structure (SMILES) | Emax (primary human T-cells [2]) [%] | EC50 (primary human T-cells [2]) [nM]
1 | 1590 | CC(=O)N1CC2CC2(c2nnc(-c3cc4c(cc3F)S(=O)(=O)C[C@H](N)C(=O)N4Cc3ccc(Cl)cc3)o2)C1 (stereo partly drawn) [Example 182, (3R)-7-[5-(3-acetyl-3-azabicyclo[3.1.0]hexan-1-yl)-1,3,4-oxadiazol-2-yl]-3-amino-5-[(4-chlorophenyl)methyl]-8-fluoro-1,1-dioxo-2,3-dihydro-1λ^6,5-benzothiazepin-4-one] | 38 | > 10000
2 | 43 | COC(=O)N1CC2CC2(c2nnc(-c3cc4c(cc3F)S(=O)(=O)C[C@H](N)C(=O)N4Cc3ccc(Cl)cc3)o2)C1 (stereo partly drawn) [Example 183, methyl 1-[5-[(3R)-3-amino-5-[(4-chlorophenyl)methyl]-8-fluoro-1,1,4-trioxo-2,3-dihydro-1λ^6,5-benzothiazepin-7-yl]-1,3,4-oxadiazol-2-yl]-3-azabicyclo[3.1.0]hexane-3-carboxylate] | 131 | 336
3 | 4930 | N[C@H]1CS(=O)(=O)c2cc(F)c(-c3nnc(C(F)(F)C(F)(F)F)o3)cc2N(Cc2ccc(Cl)cc2)C1=O [Example 185, (3R)-3-amino-5-[(4-chlorophenyl)methyl]-8-fluoro-1,1-dioxo-7-[5-(1,1,2,2,2-pentafluoroethyl)-1,3,4-oxadiazol-2-yl]-2,3-dihydro-1λ^6,5-benzothiazepin-4-one] | 13 | > 10000
4 | 3180 | CC(C)(CO)c1nnc(-c2cc3c(cc2F)S(=O)(=O)C[C@H](N)C(=O)N3Cc2ccc(C#N)cc2)o1 [Example 188, 4-[[(3R)-3-amino-8-fluoro-7-[5-(2-hydroxy-1,1-dimethyl-ethyl)-1,3,4-oxadiazol-2-yl]-1,1,4-trioxo-2,3-dihydro-1λ^6,5-benzothiazepin-5-yl]methyl]benzonitrile] | 29 | > 10000
5 | > 2730 | CC(C)(C)c1nnc(-c2cc3c(cc2F)S(=O)(=O)C[C@H](N)C(=O)N3Cc2ccc(OCCCCCCCCCCCNC(=O)CCC3=CC4=Cc5ccc(-c6ccc[nH]6)n5[B-](F)(F)[N+]4=C3)cc2)o1 [Example 189, 3-[2,2-difluoro-12-(1H-pyrrol-2-yl)-1-aza-3-azonia-2-boranuidatricyclo[7.3.0.03,7]dodeca-3,5,7,9,11-pentaen-5-yl]-N-[11-[4-[[(3R)-3-amino-7-(5-tert-butyl-1,3,4-oxadiazol-2-yl)-8-fluoro-1,1,4-trioxo-2,3-dihydro-1λ^6,5-benzothiazepin-5-yl]methyl]phenoxy]undecyl]propanamide] | 134 | 680
6 | 1640 | C[C@@H]1[C@H](N)C(=O)N(Cc2ccc(Cl)cc2)c2cc(-c3nnc(C(C)(C)C)o3)c(F)cc2S1(=O)=O [Example 190, (2R,3R)-3-amino-7-(5-tert-butyl-1,3,4-oxadiazol-2-yl)-5-[(4-chlorophenyl)methyl]-8-fluoro-2-methyl-1,1-dioxo-2,3-dihydro-1λ^6,5-benzothiazepin-4-one] | 114 | 1160
7 | 11400 | N[C@H]1CS(=O)(=O)c2cc(F)c(-c3nnc(N4CCC4)o3)cc2N(Cc2ccc(Cl)cc2)C1=O [Example 191, (3R)-3-amino-7-[5-(azetidin-1-yl)-1,3,4-oxadiazol-2-yl]-5-[(4-chlorophenyl)methyl]-8-fluoro-1,1-dioxo-2,3-dihydro-1λ^6,5-benzothiazepin-4-one] | 184 | 1280
8 | 125 | N[C@H]1CS(=O)(=O)c2cc(F)c(-c3noc(N4CCOC5CC54)n3)cc2N(Cc2ccc(Cl)cc2)C1=O (stereo partly drawn) [Example 192, (3R)-3-amino-5-[(4-chlorophenyl)methyl]-8-fluoro-7-[5-(2-oxa-5-azabicyclo[4.1.0]heptan-5-yl)-1,2,4-oxadiazol-3-yl]-1,1-dioxo-2,3-dihydro-1λ^6,5-benzothiazepin-4-one] | 110 | 100
9 | 38.7 | N[C@H]1CS(=O)(=O)c2cc(F)c(-c3noc(N4CCOC(C(F)(F)F)C4)n3)cc2N(Cc2ccc(Cl)cc2)C1=O (stereo partly drawn) [Example 193, (3R)-3-amino-5-[(4-chlorophenyl)methyl]-8-fluoro-1,1-dioxo-7-[5-[2-(trifluoromethyl)morpholin-4-yl]-1,2,4-oxadiazol-3-yl]-2,3-dihydro-1λ^6,5-benzothiazepin-4-one] | 108 | 21.3
10 | 40.7 | N[C@H]1CS(=O)(=O)c2cc(F)c(-c3noc(N4CCOC5(CC5)C4)n3)cc2N(Cc2ccc(Cl)cc2)C1=O [Example 194, (3R)-3-amino-5-[(4-chlorophenyl)methyl]-8-fluoro-7-[5-(4-oxa-7-azaspiro[2.5]octan-7-yl)-1,2,4-oxadiazol-3-yl]-1,1-dioxo-2,3-dihydro-1λ^6,5-benzothiazepin-4-one] | 79 | 15.2
11 | 167 | N[C@H]1CS(=O)(=O)c2cc(F)c(-c3noc(NC4CCC4)n3)cc2N(Cc2ccc(Cl)cc2)C1=O [Example 195, (3R)-3-amino-5-[(4-chlorophenyl)methyl]-7-[5-(cyclobutylamino)-1,2,4-oxadiazol-3-yl]-8-fluoro-1,1-dioxo-2,3-dihydro-1λ^6,5-benzothiazepin-4-one] | 108 | 106
12 | 36.1 | N[C@H]1CS(=O)(=O)c2cc(F)c(-c3noc(N4CCOCC4)n3)cc2N(Cc2ccc(Cl)cc2)C1=O [Example 196, (3R)-3-amino-5-[(4-chlorophenyl)methyl]-8-fluoro-7-(5-morpholino-1,2,4-oxadiazol-3-yl)-1,1-dioxo-2,3-dihydro-1λ^6,5-benzothiazepin-4-one] | 81 | 16.6
13 | 226 | N[C@H]1CS(=O)(=O)c2cc(F)c(-c3noc(N4CCC(F)(F)CC4)n3)cc2N(Cc2ccc(Cl)cc2)C1=O [Example 197, (3R)-3-amino-5-[(4-chlorophenyl)methyl]-7-[5-(4,4-difluoro-1-piperidyl)-1,2,4-oxadiazol-3-yl]-8-fluoro-1,1-dioxo-2,3-dihydro-1λ^6,5-benzothiazepin-4-one] | 112 | 118
14 | 562 | N[C@H]1CS(=O)(=O)c2cc(F)c(-c3noc(N4CCNC(C(F)(F)F)C4)n3)cc2N(Cc2ccc(Cl)cc2)C1=O (stereo partly drawn) [Example 198, (3R)-3-amino-5-[(4-chlorophenyl)methyl]-8-fluoro-1,1-dioxo-7-[5-[3-(trifluoromethyl)piperazin-1-yl]-1,2,4-oxadiazol-3-yl]-2,3-dihydro-1λ^6,5-benzothiazepin-4-one] | 112 | 332
15 | > 10000 | CC(C)(C#N)Nc1nc(-c2cc3c(cc2F)S(=O)(=O)C[C@H](N)C(=O)N3Cc2ccc(Cl)cc2)no1 [Example 199, 2-methyl-2-[[3-[(3R)-3-amino-5-[(4-chlorophenyl)methyl]-8-fluoro-1,1,4-trioxo-2,3-dihydro-1λ^6,5-benzothiazepin-7-yl]-1,2,4-oxadiazol-5-yl]amino]propanenitrile] | 71 | 2960
16 | 828 | CC1(Nc2nc(-c3cc4c(cc3F)S(=O)(=O)C[C@H](N)C(=O)N4Cc3ccc(Cl)cc3)no2)CC(F)(F)C1 [Example 201, (3R)-3-amino-5-[(4-chlorophenyl)methyl]-7-[5-[(3,3-difluoro-1-methyl-cyclobutyl)amino]-1,2,4-oxadiazol-3-yl]-8-fluoro-1,1-dioxo-2,3-dihydro-1λ^6,5-benzothiazepin-4-one] | 156 | 229
17 | 1300 | NC(CNc1nc(-c2cc3c(cc2F)S(=O)(=O)C[C@H](N)C(=O)N3Cc2ccc(Cl)cc2)no1)C(F)(F)F (stereo partly drawn) [Example 202, (3R)-3-amino-7-[5-[(2-amino-3,3,3-trifluoro-propyl)amino]-1,2,4-oxadiazol-3-yl]-5-[(4-chlorophenyl)methyl]-8-fluoro-1,1-dioxo-2,3-dihydro-1λ^6,5-benzothiazepin-4-one] | 57 | 1430
18 | 1580 | C#CCOCCOCCCC(C)(C)Nc1nc(-c2cc3c(cc2F)S(=O)(=O)C[C@H](N)C(=O)N3Cc2ccc(Cl)cc2)no1 [Example 203, (3R)-3-amino-5-[(4-chlorophenyl)methyl]-7-[5-[[1,1-dimethyl-4-(2-prop-2-ynoxyethoxy)butyl]amino]-1,2,4-oxadiazol-3-yl]-8-fluoro-1,1-dioxo-2,3-dihydro-1λ^6,5-benzothiazepin-4-one] | 99 | 233
19 | 78.5 | N[C@H]1CS(=O)(=O)c2cc(F)c(-c3noc(N4CCOC(F)(F)C4)n3)cc2N(Cc2ccc(Cl)cc2)C1=O [Example 204, (3R)-3-amino-5-[(4-chlorophenyl)methyl]-7-[5-(2,2-difluoromorpholin-4-yl)-1,2,4-oxadiazol-3-yl]-8-fluoro-1,1-dioxo-2,3-dihydro-1λ^6,5-benzothiazepin-4-one] | 154 | 34.8
20 | 542 | N[C@H]1CS(=O)(=O)c2cc(F)c(-c3noc(NC4CC(F)(F)C4)n3)cc2N(Cc2ccc(Cl)cc2)C1=O [Example 206] | 168 | 157
21 | 16400 | CCc1coc(-c2cc3c(cc2F)S(=O)(=O)C[C@H](N)C(=O)N3Cc2ccc(Cl)cc2)n1 [Example 216, (3R)-3-amino-5-[(4-chlorophenyl)methyl]-7-(4-ethyloxazol-2-yl)-8-fluoro-1,1-dioxo-2,3-dihydro-1λ^6,5-benzothiazepin-4-one] | 41 | > 20000

Row | Structure (SMILES) | EC50 (primary human T-cells [1]) [nM] | Emax (primary human T-cells [2]) [%] | EC50 (primary human T-cells [2]) [nM]
22 | N[C@H]1CS(=O)(=O)c2cc(F)c(-c3noc(N4[C@@H]5CC[C@H]4COC5)n3)cc2N(Cc2ccc(Cl)cc2)C1=O [Example 200, (3R)-3-amino-5-[(4-chlorophenyl)methyl]-8-fluoro-1,1-dioxo-7-[5-[(1R,5S)-3-oxa-8-azabicyclo[3.2.1]octan-8-yl]-1,2,4-oxadiazol-3-yl]-2,3-dihydro-1λ^6,5-benzothiazepin-4-one] | 142 | 88 | 37.9
